Test system: miRNA contained in exosomes secreted from C2C12 cells
Details: ratio of 1.5 or more compared to the control and signal value exceeding 100; Table 1, FIG. 5
Procedure: In this example, miRNA in exosomes was analyzed by microarray.
The exosome solution purified in Example 2 was used for microarray analysis. The microarray experiment was outsourced to Kamakura Techno Science (Kanagawa, Japan). Based on the data obtained, samples with a ratio of 1.5 or more compared to the control and with either of the two samples with a signal value exceeding 100 were extracted as miRNAs with altered transcription levels.

Q: `NCCC(=O)O` [β-alanine, 3-aminopropanoic acid] was tested. Which “miRNA increased in exosomes of C2C12 cells” value did it give?
A: six RNAs were increased

— patent US20250332131A1, “COMPOSITION FOR ACTIVATING NICOTINAMIDE PHOSPHORIBOSYLTRANSFERASE” (Yuki Gosei Kogyo Co., Ltd., priority 2024, published 2025)
